Data from patent US11760764B2, “Methods and compositions for targeting PD-L1” (Aligos Therapeutics, Inc., priority 2020, dated 2023).

Legend:
[1] = target: PD-1/PD-L1 interaction (PDL1-6×His protein, PD1-Fc-Avi-Biotin protein) (Homo sapiens, UniProt Q9NZQ7); assay: PDL1/PD1 Binding Assay; conditions: Table C-1; 0.3 nM PDL1, 2.5 nM PD1; read-out: Biological Data Biochem PD-1/PD-L1
Procedure: Compounds to be tested were serially diluted in DMSO, and further diluted in assay buffer (25 mM Hepes pH 7.4, 150 mM NaCl, 0.005% Tween 20, BSA 0.01%). Diluted compounds were added to the wells with final concentration of DMSO at 1%. PDL1-6×His protein was added to the wells, mixed well with compound. The plates were incubated for 30 min at room temperature. PD1-Fc-Avi-Biotin protein was added to the wells. […] After a binding time of 30 min at room temperature, Anti-6×His Acceptor beads (final concentration 20 ug/ml) were added to the wells, and the incubation continued for 1 h. Streptavidin Donor beads (final concentration 20 ug/mL) were added at reduced light. The plates were sealed with foil and incubated in the dark for additional 1 h or overnight before reading on an Envision reader. The IC50s were determined by fitting the curves using a four-parameter equation in Graphpad Prism 8.

[2] = target: T1, PD-1/PD-L1 interaction (Jurkat cells overexpressing PD-1 co-cultured with PD-L1 expressing CHO cells) (Homo sapiens, UniProt Q9NZQ7); assay: PD-1/PD-L1 NFAT Reporter Assay; format: cell-based; conditions: Table C-1; Jurkat/CHO co-culture, 6 hrs at 37° C., luciferase activity
T1 construct: expressed in transfected cells; Jurkat cells (PD-1 and NF-AT luciferase construct)
T1 sequence (Q9NZQ7 19-290): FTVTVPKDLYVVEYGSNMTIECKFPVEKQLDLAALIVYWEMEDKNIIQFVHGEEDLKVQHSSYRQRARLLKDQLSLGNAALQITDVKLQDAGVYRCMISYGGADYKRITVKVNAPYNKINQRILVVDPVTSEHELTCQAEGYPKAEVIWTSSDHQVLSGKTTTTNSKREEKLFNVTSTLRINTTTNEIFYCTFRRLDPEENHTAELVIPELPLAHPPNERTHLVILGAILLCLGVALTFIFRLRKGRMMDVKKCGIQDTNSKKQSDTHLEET
Procedure: Blocking the PD-1/PD-L1 interaction will release the inhibitory signal and results in TCR signaling and NFAT-mediated luciferase activity.
CHO cells expressing surface-bound anti-CD3 antibodies and PD-L1 were first seeded overnight and treated with the compounds. Jurkat cells overexpressing PD-1 and a luciferase construct under NF-AT promoter were then immediately seeded on the monolayer of CHO cells. The co-culture was then incubated for 6 hrs at 37° C. Luciferase activity was assessed by adding the ONE-Glo reagent and measuring luminescence with a plate reader. EC50s values were determined from the fit of the dose-response curves

Sequence of PD-1/PD-L1 interaction (PDL1-6×His protein, PD1-Fc-Avi-Biotin protein) (Q9NZQ7 19-238 limits assumed): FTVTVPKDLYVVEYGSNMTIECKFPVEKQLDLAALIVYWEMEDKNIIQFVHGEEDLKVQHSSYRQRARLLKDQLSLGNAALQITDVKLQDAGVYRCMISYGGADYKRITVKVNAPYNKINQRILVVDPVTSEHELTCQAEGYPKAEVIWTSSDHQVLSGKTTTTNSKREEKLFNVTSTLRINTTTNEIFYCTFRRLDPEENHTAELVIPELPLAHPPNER

IC50 [1] [nM] | EC50 [2] [nM] | Compound
≤ 10 | 100 to 1000 | COc1cc(-c2cccc(-c3cccc(-c4cc5c(c(OC)c4)C(N4CC(C(=O)O)C4)CC5)c3Cl)c2Cl)cc2c1C(N1CC(C(=O)O)C1)CC2 (stereo not shown) [Compound M-1B]
≤ 10 | 1000 to 10000 | COCCN1CCc2c(cc(-c3cccc(-c4cccc(-c5cc6c(c(OC)n5)CCN(CCOC)C6)c4Cl)c3Cl)nc2OC)C1 [Compound O-1]
